Measurements published in patent publication US6673786B1, “Tryptase inhibitors” (Altana Pharma AG, priority 1999, dated 2004).
Structures can show the parent of a compound that is named as a salt.

Biological target: human tryptase
Assay: Inhibition of human tryptase (apparent dissociation constant, chromogenic substrate tos-Gly-Pro-arg-pNA)
Type: biochemical
Details: apparent dissociation constant in presence of substrate; heparin 0.1-50 μg/ml; equilibrium conditions; read-out: Klapp
Description: The documented pathophysiological effects of mast cell tryptase are caused directly by the enzymatic activity of the protease. Accordingly, they are reduced or blocked by inhibitors which inhibit the enzymatic activity of the tryptase. A suitable measure for the affinity of a reversible inhibitor to the target protease is the equilibrium dissociation constant Ki of the enzyme-inhibitor complex. This Ki value can be determined via the effect of the inhibitor on the tryptase-induced cleavage of a chromogenic peptide-p-nitroanilide substrate or a fluorogenic peptide-aminomethylcoumarin substrate.
The dissociation constants for the tryptase-inhibitor complexes are determined under equilibrium conditions in accordance with the general proposals of Bieth (Bieth J G, Pathophysiological Interpretation of kinetic constants of protease inhibitors, Bull. Europ. Physiopath. Resp. 16:183-195, 1980) and the methods of Sommerhoff et al. (Sommerhoff C P et al., A Kazal-type inhibitor of human mast cell tryptase: Isolation from the medical leech Hirudo medicinalis, characterization, and sequence analysis, Biol. Chem. Hoppe-Seyler 375: 685-694, 1994).
Human tryptase is isolated from lung tissue or prepared recombinantly; the specific activity of the protease, determined by titration, is usually greater than 85% of the theoretical value. In the presence of heparin (0.1-50 μg/ml) for stabilizing the protease, constant amounts of the tryptase are incubated with increasing amounts of the inhibitors. After an equilibrium between the reaction partners has formed, the remaining enzyme activity after addition of the peptide-p-nitroanilide substrate tos-Gly-Pro-arg-pNA is determined and the cleavage of the latter is monitored at 405 nm for 3 min. Alternatively, the remaining enzymatic activity can also be determined using fluorogenic substrates. The apparent dissociation constants Kiapp (i.e. in the presence of substrate) are subsequently determined by adapting the enzyme rates to the general equation for reversible inhibitors (Morrison J F, Kinetics of the reversible inhibition of enzymecatalyzed reactions by tight-binding inhibitors, Biochim. Biophys. Acta 185, 269-286, 1969) using non-linear regression:
V1V0=1−{Et+It+Kiapp−[(Et+It+Kiapp)^2−4EtIt]^½}/2Et
V1 and V0 are the rates in the presence and absence, respectively, of the inhibitor, and Et and It are the tryptase and inhibitor concentrations, respectively.
The apparent dissociation constants determined for the compounds according to the invention are shown in Table A below, where the numbers of the compounds correspond to the numbers of the compounds in the examples.

**Q.** With `NCc1ccc(CNC(=O)N2CCN(C(=O)CN3CCC(=O)N(CC(=O)N4CCN(C(=O)NCc5ccc(CN)cc5)CC4)CCC3=O)CC2)cc1` [Compound 1, 1,5-bis-{2-[4-(4-Aminomethylbenzylaminocarbonyl)piperazin-1-yl]-2-oxoethyl}perhydro-1,5-diazocin-2,6-dione Dihydrochloride] as the compound, how does the Ki read?
**A.** 2.6 nM

**Q.** Which Ki does the source give for `NCc1cccc(CCC(=O)N2CCN(C(=O)CN3CCC(=O)N(CC(=O)N4CCN(C(=O)CCc5cccc(CN)c5)CC4)CCC3=O)CC2)c1` [Compound 3, 1,5-bis-{2-[4-(3-(3-aminomethylphenyl)proplonyl)piperazin-1-yl]-2-oxoethyl}perhydro-1,5-diazocin-2,6-dione Dihydrochloride] here?
**A.** 3.3 nM

**Q.** For `NCc1ccc(CCC(=O)N2CCN(C(=O)CN3CCC(=O)N(CC(=O)N4CCN(C(=O)CCc5ccc(CN)cc5)CC4)CCC3=O)CC2)cc1` [Compound 2, 1,5-bis-{2-[4-(3-(4-aminomethylphenyl)proplonyl)piperazin-1-yl]-2-oxoethyl}perhydro-1,5-diazocin-2,6-dione Dihydrochloride], which Ki is on record?
**A.** 1.2 nM

**Q.** With `NCc1ccc(OCC(=O)N2CCN(C(=O)CN3CCC(=O)N(CC(=O)N4CCN(C(=O)COc5ccc(CN)cc5)CC4)CCC3=O)CC2)cc1` [Compound 4, 1,5-bis-{2-[4-(2-(4-Aminomethylphenoxy)acetyl)perazin-1-yl]-2-oxoethyl}perhydro-1.5-diazocin-2,6-dione Dihydrochloride] as the compound, how does the Ki read?
**A.** 0.8 nM
